Measured values taken from article PMC9054013, “FCHO controls AP2’s initiating role in endocytosis through a PtdIns(4,5)P2-dependent switch” (Science Advances, 2022).
Where no end group is shown, it is not given here.

Assays:
Cμ2 = target: T1, Cμ2; conditions: read-out: KD of YxxΦ cargo peptide binding to Cμ2; cited from earlier work
T1 construct: Surface representations of the Cμ2 subdomain structure; His6; made in house; host or cells: Escherichia coli BL21 plyS
Text: page 20: Fig.S8 Details of FCHO C block binding to α -appendage and to Cµ2 A, B FCHO1 C block (claret) bound to AP2 α-appendage (blue). […] B 1.4 Å resolution 2Fo-Fc map contoured at 1.6σ. An apo structure of the α-appendage was used as MR search model (PDB 1W80 without ligands) – the direction of the peptide chain is clearly opposite to that of the published DP[FW], FxDxF motif/α-appendage complexes. C, D FCHO2 C block (claret ...

AP2 α-appendage = target: T2, AP2 α-appendage (Mus musculus, UniProt P17427); assay: Isothermal titration calorimetry with α-appendage; format: binding; conditions: ITC
T2 construct: GST-tagged Cμ2 and α-appendage proteins were made as in ([51]); GST (cleaved yes); made in house; host or cells: Escherichia coli BL21 plyS

[1] = test system: BR4-mutated (K339A, K341A, K343A, and K345A) His6-MBP-Cμ2; assay: GST pull-down of BR4-mutated His6-MBP-Cμ2; format: binding; conditions: Coomassie SDS-PAGE
Experimental: A measured amount of GST or GST-fusion protein was immobilized onto 60 μl of 50% slurry of GSH Sepharose beads in microfuge tubes and the volume made up to 750 μl with buffer. After incubation at 4°C with continuous mixing, the Sepharose beads were recovered by centrifugation (10,000g for 1 min), and the supernatants were removed. Each bead pellet was washed three times with cold assay buffer, and most of the buffer was carefully aspirated, leaving a final equivalent volume of ~50 μl.

T2 sequence (P17427 701-938 limits assumed): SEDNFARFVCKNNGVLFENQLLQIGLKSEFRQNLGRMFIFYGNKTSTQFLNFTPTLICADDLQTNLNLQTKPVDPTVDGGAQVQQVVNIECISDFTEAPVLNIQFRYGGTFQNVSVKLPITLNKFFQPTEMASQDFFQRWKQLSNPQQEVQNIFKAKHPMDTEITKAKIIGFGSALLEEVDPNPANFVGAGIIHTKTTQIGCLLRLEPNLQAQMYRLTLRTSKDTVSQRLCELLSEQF

For “DYQRLN [TGN38, TGN38 YxxΦ cargo peptide (DYQRLN)]”, the Kd (Cμ2) is given as roughly 2000 nM.
With “FCHO1 C: GST-FCHO1 C (residues 414 to 444), Fig. 4B construct ({GST}-SAPRTSSCAERLQSEEQVSKNLFGPPLESAF; UniProt O14526 414-444, looked up, fragment)” the “n (stoichiometry) of C block peptide binding to α-appendage” value (AP2 α-appendage) was 1.0.
With “FCHO2 C: GST-FCHO2 C (residues 413 to 444), Fig. 4B construct ({GST}-SAPPNEKGTSDLLAWDPLFGPSLDSSSSSSLT; UniProt Q0JRZ9 413-444, looked up, fragment)” the “n (stoichiometry) of C block peptide binding to α-appendage” value (AP2 α-appendage) was 1.0.
With SDLLAWDPLFG [FCHO2 C peptide] the Kd (AP2 α-appendage; 100 mM tris pH 7.4, 150 mM NaCl, 0.25 mM TCEP, 12°C, mean ± SEM, minimum three independent runs, read-out: KD of C block peptide binding to α-appendage) was 100 to 200 µM.
With “SERINC3-L10: GST SERINC-L10 (residues 354 to 404), Serinc3 loop binding Cμ2 only at BR4 (RTSTNSQVDKLTLSGSDSVILGDTTTSGASDEEDGQPRRAVDNEKEGVQYS; also: GST fusion, end not given here)” the “binding to BR4-mutated Cμ2 compared with WT Cμ2” value [1] was “severely inhibited”.
